The source of these data is article PMC8998618, “A Pharmacokinetic and Metabolism Study of the TRPC6 Inhibitor SH045 in Mice by LC-MS/MS” (International Journal of Molecular Sciences, 2022).

Where “and” joins values, the source holds several entries; their conditions need not be identical. Identical values can stand only once.

In general, Km refers to the concentration of substrate that gives half-maximal velocity.

A short description of data set [1]: appearance of SH045 in urine after i.v. administration. It counts as in vivo, mice. As to conditions: 20 mg/kg BW i.v. The procedure:
Mouse renal elimination of SH045 was exploratorily monitored up to their first spontaneous micturition after i.v. administration (20 mg/kg BW). Samples of released urine were assigned to micturition periods of 10–30, 60–80, or 100–120 min following application. Mean urine concentrations of unmetabolized SH045 of 748 ± 31 (n = 3), 1056 ± 104 (n = 3), and 162 ± 17 nM (n = 6), respectively, were recorded.
Via heparin-coated catheters a maximum of 50 µL blood was collected from the tail vein at 0.25, 0.5, 1, 2, 3, 4, 6, 8, or 24 h after administration and immediately centrifuged at 4000× g at 4 °C for 10 min. For repeated administration 20 mg/kg BW SH045 were administered at 8:00 a.m. on five consecutive days, once a day. Blood was taken 1 h and 24 h after drug administration. Tissue samples were harvested from isoflurane-euthanized animals at indicated time points. Mice were transcardially perfused with PBS and dissected tissues were washed to remove remaining blood. Plasma and tissue samples were stored at −80 °C until analysis. Urine was collected by bladder puncture at indicated time points.
For tissue analysis, homogenates (10% in phosphate-buffered saline, PBS) were prepared. Homogenate, plasma, and urine were mixed with IS and extracted with ice-cold ACN, centrifuged, filtered and stored in the autosampler at 6 °C until analysis in duplicates by LC-MS/MS (details in Supplementary Materials SM4).

In data set [2] the test system is cytochrome P450 isoenzymes. The data set can be described thus: cytochrome P450 isoenzyme inhibition with isoform-specific inhibitors in liver microsomes. It counts as in vitro ADME, mouse and human. The note with it: MLM and HLM, 2 µM SH045, isoform-specific inhibitors. The protocol: To determine possible metabolizing pathways of SH045 in MLM and HLM, an in vitro inhibition approach was performed with CYP-isoform specific inhibitors. […]
homogenates, and shaken vigorousl y for 5 min. 40 µL urine was mixed with 4 µL of IS and extracted with 156 µL pure […]
All microsome incubations were stopped with 1 mL ice -cold ACN containing 5 µg/mL IS, vortexed for 1 min and cooled at -20 °C for 10 min.
After centrifugation of mixtures from tissue or microsomal incubations for 15 min at 4 °C, the supernatants were filtered through a 0.2 -µm-pore-size syringe filter and stored in the autosampler at 6 °C until analysis by LC-MS/MS as […]
SM5 Tissue binding of SH045
(§1) The tissue binding of SH045 was analyzed exemplarily in lung, liver and kidney homogenate using ultrafiltration [5]. […] 20 µL of the mixture and the filtrate were analyzed for SH045. […]
(§2) Testosterone (10 µM in ACN/DPBS 2/3, v/v) instead of SH045 was used as positive control and analyzed by an appropriate HPLC method with UV detection.
Negative controls contained either no NADPH, no MLM or HLM or none of them. The overall velocity (v) of degradation was calculated from altered SH045 concentration (∆c) obtained from reduction peak area ratio of SH045 as: v = ∆c / incubation time × concentration of enzyme × volume (nmol/ min × mg). […]

Data set [3] in a line: NADPH-dependent microsomal conversion, Michaelis-Menten kinetics (HLM). It counts as in vitro ADME, human. The note with it: HLM 0.5 mg/mL protein, SH045 0.5 to 100 µM, Lineweaver-Burk. The procedure: For determination of vmax and Michaelis-Menten constant Km of the NADPH-dependent microsomal depletion of SH045, incubations in MLM and HLM were performed. Testosterone instead of SH045 was used as positive control (Supplementary Materials SM6).
Negative controls were obtained by omission of respective components. The overall velocity (v) of degradation was calculated from altered SH045 concentration (∆c) obtained from reduction peak area ratio of SH045 as: v = ∆c/incubation time × concentration of enzyme (nmol/min × mg). Mean maximum rate vmax and Km were calculated using Lineweaver-Burk transformation. […]
as §1, §2
Negative controls contained either no NADPH, no MLM or HLM or none of them. The overall velocity (v) of degradation was calculated from altered SH045 concentration (∆c) obtained from reduction peak area ratio of SH045 as: v = ∆c / incubation time × concentration of enzyme × volume (nmol/ min × mg). Mean maximum rate vmax and Michaelis-Menten constant Km were calculated using Lineweaver-Burk transformation. […]

With `C=C[C@@](C)(O)CC[C@H]1C(=C)C[C@H](OC(=O)NC)[C@H]2C(C)(C)CCC[C@]12C` [SH045, (1S,4S,4aR,8aS)-4-((S)-3-Hydroxy-3-methylpent-4-en-1-yl)-4a,8,8-trimethyl-3-methylenedecahydronaphthalen-1-yl methylcarbamate], in data set [1], the “urine concentration after 2 h relative to IC50 reported in vitro” value is reported as “about 30 fold”. The “mean urine concentration of unmetabolized SH045” value in data set [1] (micturition period 10–30 min) is 748 ± 31 nM; in data set [1] (micturition period 60–80 min), 1056 ± 104 nM; in data set [1] (micturition period 100–120 min) it was 162 ± 17 nM and 160 nM. Also, in data set [2], the “cytochrome P450 isoenzymes metabolizing SH045” value is “substrate of CYP3A4 and CYP2A6”. In addition, the vmax in data set [3] was 0.8 ± 0.1 nmol/min/mg. The Km at 10 min in data set [3] (human, human liver microsomes) was determined as 4.1 ± 0.8 µM.
